Reference: PubChem BioAssay AID743116 (Broad Institute, 2013)
Active and inactive are the calls of the source.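 How the source made its calls: active means compounds whose dose curve reaches a melting temperature rise of about 0.39 degC within the tested concentrations; inconclusive means flat curve with moderate shift, or unreliable curve fit; inactive means the rest.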

Molecular target: Fibroblast growth factor 22 (Homo sapiens) (UniProt Q9HCT0)
Assay: ligand stabilization of recombinant FGF22 – biophysical, SYPRO orange melt, qPCR instrument, dry powder, dose response (AID 743116)
Conditions: Recombinant FGF22 thermal shift, SYPRO orange fluorescence

Fibroblast growth factor 22 (Homo sapiens), sequence (Q9HCT0 whole entry, looked up): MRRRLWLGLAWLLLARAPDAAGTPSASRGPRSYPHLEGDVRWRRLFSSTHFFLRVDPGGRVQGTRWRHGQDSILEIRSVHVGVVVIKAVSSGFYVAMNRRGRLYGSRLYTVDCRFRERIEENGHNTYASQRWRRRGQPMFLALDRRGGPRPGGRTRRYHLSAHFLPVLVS

| Compound | melting temperature shift, positive = stabilization (at 38 µM (top of the series)) | also measured |
| --- | --- | --- |
| O=C(Nc1cc(Cl)cc(Cl)c1)N[C@@H]1CC[C@@H](CCNS(=O)(=O)c2cccc(F)c2)O[C@H]1CO | inactive | – |
| O=S1(=O)N=C(N(Cc2cccs2)c2ccc(O)cc2)c2ccccc21 | inactive | – |
| O=C(N/N=C/c1c[nH]c2ccccc12)c1cccc(O)c1 | – | AC50: 0.318 µM |
| CCN1C(=O)C(CC(=O)Nc2ccc(F)cc2)N(Cc2ccc3c(c2)OCO3)C1=S (stereo not given) | inactive | – |
| CC(=O)Nc1ccc(NC(=O)Nc2ccccc2)cc1 | – | melting temperature shift, positive = stabilization (at 19.5 µM (top of the series)): inactive |
| COc1ccc(-c2nc(-c3ccc(O)cc3O)cs2)cc1OC | inactive | – |
| COC(=O)C[C@H]1CC[C@@H]2[C@@H](COc3ccc(NC(=O)Nc4ccc(C#N)cc4)cc3C(=O)N2C)O1 | – | AC50: > 38 µM (inactive) |
| O=C(Nc1cc(Cl)cc(Cl)c1)N[C@@H]1CC[C@@H](CCNS(=O)(=O)c2cccc(F)c2)O[C@@H]1CO | inactive | – |
| Cc1[nH]c2ccc(C(=O)OCC(=O)Nc3cccc(S(N)(=O)=O)c3)cc2c1C | inactive | – |
| Cc1[nH]c2ccccc2c1C(=O)NS(=O)(=O)Nc1ccc(Cl)cc1 | – | melting temperature shift, positive = stabilization (at 19.5 µM (top of the series)): inactive |
| COc1ccc(Nc2nc3ccc(OC)cc3s2)cc1 | inactive | – |
| CSc1ccc(/C=N/NC(=O)c2ccc3nc[nH]c3c2)cc1 | – | AC50: 9.97 µM |
| Nc1ccc(C(=O)N/N=C/c2c[nH]c3ccccc23)cc1 | – | AC50: 24.3 µM |
| O=C(N/N=C/c1c[nH]c2ccccc12)c1cccs1 | – | AC50: 5.49 µM |
| O=C(N/N=C/c1c[nH]c2ccccc12)c1cccc(Cl)c1 | – | AC50: 15.5 µM |
| Cc1cc(C(=O)N/N=C/c2c[nH]c3ccccc23)cs1 | inactive | – |
| Cc1cc(NC(=O)Nc2ccc3c(ccn3C)c2)sn1 | – | AC50: 24.7 µM |
| Cc1ccc(S(=O)(=O)N2C[C@@H](O)COC[C@@H]3O[C@@H](CC(=O)NCc4ccc(Cl)c(Cl)c4)CC[C@H]32)cc1 | inactive | – |

| Compound | melting temperature shift, positive = stabilization (at 38 µM (top of the series)) | also measured |
| --- | --- | --- |
| Cc1ccc(S(=O)(=O)N2C[C@H](O)COC[C@H]3O[C@H](CC(=O)NCc4ccc(Cl)c(Cl)c4)CC[C@@H]32)cc1 | inactive | – |
| CCCNC(=O)COC(=O)c1ccccc1C(=O)N(C)C1CCCCC1 | inactive | – |
| COc1cc(/C=N/NC(=O)c2cc3ccccc3[nH]2)ccc1O | – | AC50: 10.1 µM |
| CCc1cc(-c2[nH]ncc2-c2ccc3c(c2)OCCO3)c(O)cc1O | – | AC50: 24 µM |
| CCOc1cccc(C(=O)Nc2ccc3[nH]ncc3c2)c1 | inactive | – |
| CC(C)c1c(C(=O)N/N=C/c2c[nH]c3ccccc23)nnn1-c1nonc1N | – | melting temperature shift, positive = stabilization (at 19.5 µM (top of the series)): inactive |
| O=S(=O)(Nc1nnc(C(F)(F)F)s1)c1ccc(Cl)cc1 | inactive | – |
| COC(=O)C1=C(CS(=O)(=O)c2cc(OC)ccc2OC)NC(=O)NC1c1ccc(O)c(OC)c1 (stereo not given) | inactive | – |
| O=C(Nc1nccs1)C1CC(=O)N(c2ccc(F)cc2)C1 (stereo not given) | inactive | – |
| O=C(N/N=C/c1c[nH]c2ccccc12)c1ccc(O)c(O)c1 | inactive | – |
| CCN1C/C(=C/c2cccs2)c2nc3ccccc3c(C(=O)O)c2C1 | inactive | – |
| Cc1ccc(OCCCC(=O)Nc2ccc(S(=O)(=O)N3CCOCC3)cc2)cc1 | inactive | – |
| CN(Cc1c(C(=O)N/N=C/c2ccc(O)cc2)nnn1-c1nonc1N)c1ccccc1 | inactive | – |
| O=C(Nc1ccc(S(=O)(=O)N2CCCC2)cc1)c1ccccc1 | – | AC50: 36.6 µM |
| CCc1cc(-c2n[nH]c(C)c2-c2ccc3c(c2)OCCO3)c(O)cc1O | inactive | – |
| Nc1cccc(-c2nc3ccc(C(=O)c4ccccc4)cc3[nH]2)c1 | – | AC50: 29.5 µM |
| O=C(Nc1ccc(S(=O)(=O)N2CCOCC2)cc1)c1ccc(F)cc1 | inactive | – |
| O=C(N/N=C/c1ccc(C(F)(F)F)cc1)c1ccc(O)cc1 | inactive | – |

Further lines, with some results ahead:

| melting temperature shift, positive = stabilization (at 38 µM (top of the series)) | Compound | also measured |
| --- | --- | --- |
| inactive | O=C(Nc1ccc(Cl)cc1)N[C@@H]1CC[C@@H](CCNS(=O)(=O)c2ccccc2F)O[C@H]1CO | – |
| inactive | CC(=O)Nc1cccc(NC(=O)c2ccc3[nH]c(C)c(C)c3c2)c1 | – |
| inactive | CC(=O)Nc1cccc(C(=O)N/N=C/c2c[nH]c3ccccc23)c1 | – |
| inactive | Clc1ccc(Nc2ccc(NCc3ccccc3)nn2)cc1 | – |
| inactive | CCNC(=O)C[C@@H]1CC[C@H]2[C@H](COc3ccc(NC(=O)Nc4ccc(Cl)cc4)cc3C(=O)N2C)O1 | – |
| inactive | COc1ccc(C)cc1NS(=O)(=O)c1ccc(NS(=O)(=O)c2ccc(NC(C)=O)cc2)cc1 | – |
| inactive | O=C(O)Cc1ccc(NC(=O)c2ccc(Cl)c(Cl)c2)cc1 | – |
| inactive | O=C(NCCc1c[nH]c2ccccc12)c1ccc(Cl)cc1 | – |
| inactive | COC(=O)C[C@H]1CC[C@@H]2[C@@H](COc3ccc(NC(=O)Nc4cccc(C#N)c4)cc3C(=O)N2C)O1 | – |
| inactive | O=C(C[C@H]1CC[C@@H]2[C@H](COC[C@H](O)CN2S(=O)(=O)c2cccc(Cl)c2)O1)Nc1ccccc1 | – |
| inactive | Cc1ccn(-c2ccc(NC(=O)c3cccs3)cc2)n1 | – |
| inactive | CC(=O)c1ccc(NC(=O)Nc2cccnc2)cc1 | – |
| inactive | O=C(N/N=C/c1cccc(Oc2ccccc2)c1)c1cccc(O)c1 | – |
| inactive | O=C(Nc1ccc(S(=O)(=O)N2CCCC2)cc1)c1cccs1 | – |
